Data on two compounds can be found in publication PMC7934941, “Pharmacological chaperone action in humanized mouse models of MC4R-linked obesity” (JCI Insight, 2021).

One assay deals with T1, WT-hMC4R (Homo sapiens, UniProt P32245).
T1 construct: expressed in transfected cells
Briefly: Melanocortin agonist cAMP production, WT receptor. The class given is cell-based. As to conditions: % of Emax of untreated WT-hMC4R upon 1 μM NDP-α-MSH. On the procedure: (§1) Data are the means ± SEM of 3 independent experiments.
(§2) Cells were kept on ice for 5 minutes before proceeding to cAMP measurement. […] For all assays, plates were then put at –80°C at least 90 minutes and thawed at RT on Heidolph Titramax 100 shaker at speed 1050 rpm. Cell lysates were then transferred to 384-well plates, lysed, and incubated with cAMP labeled with the dye d2 and anti-cAMP M antibody labeled with Cryptate (cAMP dynamic-2 kit, cisbio) according to the manufacturer’s protocol. Reading of the homogeneous time-resolved fluorescence signal was performed on an Artemis time-resolved fluorescence resonance energy transfer plate reader (Cosmo Bio USA).

A further assay deals with T2, R165W-hMC4R (Homo sapiens, UniProt P32245, R165W).
T2 construct: expressed in transfected cells
T2 sequence (P32245 whole entry R165W): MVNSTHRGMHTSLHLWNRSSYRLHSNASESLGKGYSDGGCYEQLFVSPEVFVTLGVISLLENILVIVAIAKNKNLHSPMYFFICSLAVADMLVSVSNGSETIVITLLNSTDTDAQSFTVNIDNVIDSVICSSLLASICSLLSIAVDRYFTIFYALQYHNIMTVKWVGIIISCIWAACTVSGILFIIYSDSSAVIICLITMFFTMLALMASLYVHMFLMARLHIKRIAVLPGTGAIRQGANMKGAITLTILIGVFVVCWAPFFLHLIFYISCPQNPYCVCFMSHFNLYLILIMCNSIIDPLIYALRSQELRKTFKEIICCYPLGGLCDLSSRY
Briefly: Melanocortin agonist cAMP production, mutant receptor. The class given is cell-based. As for the experimental part: as §1, §2
A general note: Changes in cAMP serve as a functional read-out for many G protein-coupled receptors.

For assay [1], the system named is hMC4R-KI, loxTB MC4R-null and nontransgenic mice. As to the kind of experiment: Acute icv melanocortin agonist sensitivity, nocturnal food intake. The class given is in vivo, mouse. As to conditions: homozygous loxTB MC4R-null mice. As for the experimental part: (A–C) Immunohistochemical labeling of MC4R-positive neurons. […] Inset in A: higher power magnification of boxed areas containing GFP immune reactive neurons (brown cytoplasmic reaction product). Arrows in the center and right insets indicate GFP-positive neurons. Scale bars: 100 μm (A), 50 μm (A, inset), […] (B) and 10 μm (C). […] Food intake was measured 4 hours postadministration in dark phase and reported in percentage.
Food consumption was then assessed between ZT10 and ZT15 (3 hours after lights off). Food consumption was then normalized relative to the basal food consumption measured the day before for each mouse (% food intake vs. basal) and is expressed as means ± SEM.
The guide cannulas were secured with screws and cranioplastic cement (Dentsply Canada). To prevent clogging and to reduce the potential for brain infection, sterile obturators (PlasticsOne) were inserted into the guide cannulas. Appropriate cannula placement was functionally verified before experiments using the dipsogenic effects of angiotensin 2 injections (5 ng) as positive control, 5 days after surgery.
The day prior to agonist sensitivity assay, basal food consumption was measured individually between Zeitgeber time 10 (ZT10) (10 hours after lights on) and ZT15 (3 hours after lights off). […] Food consumption was then assessed between ZT10 and ZT15. […]

In assay [2] the target is human melanocortin type 4 receptor (WT) (human) (UniProt P32245). As to conditions: scale: pEC50.
human melanocortin type 4 receptor (WT) (human), sequence (P32245 whole entry): as the sequence (P32245 whole entry R165W) above, with W165R counted along it
Assay [3] addresses mouse melanocortin type 4 receptor (mouse) (UniProt P56450). As to conditions: scale: pEC50.

T1 sequence (P32245 whole entry): as the sequence (P32245 whole entry R165W) above, with W165R counted along it
mouse melanocortin type 4 receptor (mouse), sequence (P56450 whole entry): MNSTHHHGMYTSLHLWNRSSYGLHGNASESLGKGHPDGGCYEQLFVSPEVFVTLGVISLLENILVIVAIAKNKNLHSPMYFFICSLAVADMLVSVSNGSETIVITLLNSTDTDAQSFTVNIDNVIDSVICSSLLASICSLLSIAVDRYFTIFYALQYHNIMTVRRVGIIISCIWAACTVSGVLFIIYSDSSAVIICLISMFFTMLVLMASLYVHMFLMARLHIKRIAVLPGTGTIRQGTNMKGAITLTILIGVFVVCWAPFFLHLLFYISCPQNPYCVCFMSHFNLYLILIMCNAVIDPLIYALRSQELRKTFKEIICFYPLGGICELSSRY

In the case of `CSCC[C@H](NC(=O)[C@H](CCCNC(=N)N)NC(=O)[C@H](Cc1ccc(O)cc1)NC(=O)[C@@H]1CCCN1C(=O)CNC(=O)[C@H](CCC(=O)O)NC(=O)[C@H](CC(=O)O)NC(=O)[C@H](CCCCN)NC(=O)[C@H](CCCCN)NC(=O)[C@H](CCC(=O)O)NC(=O)[C@H](C)N)C(=O)N[C@@H](CCC(=O)O)C(=O)N[C@@H](Cc1c[nH]cn1)C(=O)N[C@@H](Cc1ccccc1)C(=O)N[C@@H](CCCNC(=N)N)C(=O)N[C@@H](Cc1c[nH]c2ccccc12)C(=O)NCC(=O)N[C@@H](CO)C(=O)N1CCC[C@H]1C(=O)N1CCC[C@H]1C(=O)N[C@@H](CCCCN)C(=O)N[C@@H](CC(=O)O)C(=O)O` [β-MSH], the Emax stood at 92.7 ± 15.8% on WT-hMC4R (WT-hMC4R after 10 μM UM0130866 for 15 hours, washed); 112 ± 2.55% at WT-hMC4R (WT-hMC4R, untreated); 115 ± 43.5% on R165W-hMC4R. In assay [1], the “food intake response (ZT10-ZT15)” value is listed as “absence of anorexic response”.

For the compound “α–melanocyte-stimulating hormone (peptide)”, the potency (pEC50) of α-MSH to activate Gs, BRET-based biosensor directly monitoring Gs activation came to 7.48 in assay [2] and 8.64 in assay [3].

In general, Emax refers to the maximal effect, on the per cent scale that the assay sets.
